In PMC9609330:

Tests used:
[1] = tested on: AT11-L2 (DNA, G4) TGGTGGTGGTTGTTGTTGGTGGTGGTGGT; assay: CD melting; conditions: K+ 100 mM, 10 mM lithium cacodylate pH 7.2, 10 µM DNA, 2.0 eq. ligand (20 µM)
[2] = tested on: 5′-Cy5-AT11-L2 (DNA, G4) TGGTGGTGGTTGTTGTTGGTGGTGGTGGT; assay: fluorescence titration (Cy5 quenching), Hill fit; conditions: K+ 100 mM, 10 mM lithium cacodylate, 1 µM DNA, apparent KD
[3] = tested on: 5′-Cy5-AT11-L2 (DNA, G4) TGGTGGTGGTTGTTGTTGGTGGTGGTGGT; assay: fluorescence titration (Cy5 quenching), Michaelis–Menten fit; conditions: K+ 100 mM; 10 mM lithium cacodylate; 1 µM DNA; apparent KD
[4] = target: T1, nucleolin RBD1,2 (NCL RBD1,2) (UniProt P19338 307-466); assay: fluorescence titration; PDS (pre-formed G4/ligand complex); Oligonucleotide annealed in 10 mM lithium cacodylate pH 7.2, 100 mM KCl (95 °C 10 min, then ice 10 min); titration temperature not given in the material; conditions: protein: recombinant; label: 5'-Cy5; intramolecular G4, parallel in 100 mM KCl
[5] = target: T1, nucleolin RBD1,2 (NCL RBD1,2); assay: fluorescence titration; 360A (pre-formed G4/ligand complex); Oligonucleotide annealed in 10 mM lithium cacodylate pH 7.2, 100 mM KCl (95 °C 10 min, then ice 10 min); titration temperature not given in the material; conditions: protein: recombinant; label: 5'-Cy5; intramolecular G4, parallel in 100 mM KCl
[6] = target: T1, nucleolin RBD1,2 (NCL RBD1,2); assay: fluorescence titration; PhenDC3 (pre-formed G4/ligand complex); Oligonucleotide annealed in 10 mM lithium cacodylate pH 7.2, 100 mM KCl (95 °C 10 min, then ice 10 min); titration temperature not given in the material; conditions: protein: recombinant; label: 5'-Cy5; intramolecular G4, parallel in 100 mM KCl
[7] = target: T1, nucleolin RBD1,2 (NCL RBD1,2); assay: fluorescence titration; BRACO-19 (pre-formed G4/ligand complex); Oligonucleotide annealed in 10 mM lithium cacodylate pH 7.2, 100 mM KCl (95 °C 10 min, then ice 10 min); titration temperature not given in the material; conditions: protein: recombinant; label: 5'-Cy5; intramolecular G4, parallel in 100 mM KCl
[8] = target: T1, nucleolin RBD1,2 (NCL RBD1,2); assay: fluorescence titration; TMPyP4 (pre-formed complex; TMPyP4 excess disrupts the G4); Oligonucleotide annealed in 10 mM lithium cacodylate pH 7.2, 100 mM KCl (95 °C 10 min, then ice 10 min); titration temperature not given in the material; conditions: protein: recombinant; label: 5'-Cy5; intramolecular G4, parallel in 100 mM KCl

T1 sequence (P19338 307-466): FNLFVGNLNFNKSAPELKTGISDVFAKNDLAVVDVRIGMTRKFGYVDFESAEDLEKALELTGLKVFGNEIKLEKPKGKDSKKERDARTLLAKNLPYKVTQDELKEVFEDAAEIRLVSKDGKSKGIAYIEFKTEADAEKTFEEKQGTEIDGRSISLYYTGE

`CN(C)c1ccc(Nc2c3ccc(NC(=O)CCN4CCCC4)cc3nc3cc(NC(=O)CCN4CCCC4)ccc23)cc1` showed a ΔTm [1] of 22.5 °C and a KD ([2]; Hill n = 0.9) of 5600 ± 2000 nM.

`C[n+]1cc(NC(=O)c2ccc3ccc4ccc(C(=O)Nc5cc6ccccc6[n+](C)c5)nc4c3n2)cc2ccccc21` gave a ΔTm [1] of 14.9 °C and a KD ([2]; Hill n = 2.2) of 1400 ± 85 nM.

`C[n+]1cc(NC(=O)c2cccc(C(=O)Nc3cc4ccccc4[n+](C)c3)n2)cc2ccccc21` gave a ΔTm [1] of 6.5 °C and a KD ([2]; Hill n = 0.6) of 31000 ± 60000 nM.

With `C[n+]1ccc(-c2c3nc(c(-c4cc[n+](C)cc4)c4ccc([nH]4)c(-c4cc[n+](C)cc4)c4nc(c(-c5cc[n+](C)cc5)c5ccc2[nH]5)C=C4)C=C3)cc1` the ΔTm ([1]; unfolds G4 at 3.5 eq.) was 22.9 °C and the KD ([2]; Hill n = 1.2) was 1300 ± 150 nM.

`NCCOc1cc(C(=O)Nc2cc(OCCN)c3ccccc3n2)nc(C(=O)Nc2cc(OCCN)c3ccccc3n2)c1` showed a ΔTm [1] of 1.8 °C and a KD [3] of 14 ± 4.9 nM.

B1: 5'-Cy5-AT11-L2 G4 (structured_DNA)
DNA: TGGTGGTGGTTGTTGTTGGTGGTGGTGGT
For B1, the Kd [4] was 63 nM, the Kd [5] was 6400 nM and the Kd [6] was 18 nM. It also gave a Kd [7] of 150 nM and a Kd [8] of 1.2 nM.
